Results: ChEMBL document CHEMBL4627246, “Pyroglutamide-Based P2X7 Receptor Antagonists Targeting Inflammatory Bowel Disease” (J Med Chem, 2020)

Key:
Assay type in all cases: cell-based
EKVX = test: Cytotoxicity against human EKVX cells assessed as effect on cell growth at 10 uM incubated for 48 hrs by sulforhodamine B assay
K562 = test: Cytotoxicity against human K562 cells assessed as effect on cell growth at 10 uM incubated for 48 hrs by sulforhodamine B assay; conditions: k562, 48 h
NCI-H322M = test: Cytotoxicity against human NCI-H322M cells assessed as effect on cell growth at 10 uM incubated for 48 hrs by sulforhodamine B assay
NCI-H460 = test: Cytotoxicity against human NCI-H460 cells assessed as effect on cell growth at 10 uM incubated for 48 hrs by sulforhodamine B assay; conditions: nci-h460, 48 h
COLO 205 = test: Cytotoxicity against human COLO205 cells assessed as effect on cell growth at 10 uM incubated for 48 hrs by sulforhodamine B assay; conditions: colo 205, 48 h
SW-620 = test: Cytotoxicity against human SW620 cells assessed as effect on cell growth at 10 uM incubated for 48 hrs by sulforhodamine B assay; conditions: sw-620, 48 h
Malme-3M = test: Cytotoxicity against human MALME-3M cells assessed as effect on cell growth at 10 uM incubated for 48 hrs by sulforhodamine B assay
SK-MEL-28 = test: Cytotoxicity against human SK-MEL-28 cells assessed as effect on cell growth at 10 uM incubated for 48 hrs by sulforhodamine B assay; conditions: sk-mel-28, 48 h
OVCAR-4 = test: Cytotoxicity against human OVCAR4 cells assessed as effect on cell growth at 10 uM incubated for 48 hrs by sulforhodamine B assay; conditions: ovcar-4, 48 h
OVCAR-5 = test: Cytotoxicity against human OVCAR5 cells assessed as effect on cell growth at 10 uM incubated for 48 hrs by sulforhodamine B assay; conditions: ovcar-5, 48 h
OVCAR-8 = test: Cytotoxicity against human OVCAR8 cells assessed as effect on cell growth at 10 uM incubated for 48 hrs by sulforhodamine B assay; conditions: ovcar-8, 48 h
SK-OV-3 = test: Cytotoxicity against human SKOV3 cells assessed as effect on cell growth at 10 uM incubated for 48 hrs by sulforhodamine B assay; conditions: sk-ov-3, 48 h
786-0 = test: Cytotoxicity against human 786-0 cells assessed as effect on cell growth at 10 uM incubated for 48 hrs by sulforhodamine B assay; conditions: 786-0, 48 h
A498 = test: Cytotoxicity against human A498 cells assessed as effect on cell growth at 10 uM incubated for 48 hrs by sulforhodamine B assay; conditions: a498, 48 h
ACHN = test: Cytotoxicity against human ACHN cells assessed as effect on cell growth at 10 uM incubated for 48 hrs by sulforhodamine B assay
RXF 393 = test: Cytotoxicity against human RXF393 cells assessed as effect on cell growth at 10 uM incubated for 48 hrs by sulforhodamine B assay; conditions: rxf 393, 48 h
TK-10 = test: Cytotoxicity against human TK10 cells assessed as effect on cell growth at 10 uM incubated for 48 hrs by sulforhodamine B assay; conditions: tk-10, 48 h
DU-145 = test: Cytotoxicity against human DU145 cells assessed as effect on cell growth at 10 uM incubated for 48 hrs by sulforhodamine B assay; conditions: du-145, 48 h
MCF7 = test: Cytotoxicity against human MCF7 cells assessed as effect on cell growth at 10 uM incubated for 48 hrs by sulforhodamine B assay; conditions: mcf7, 48 h
MDA-MB-231 = test: Cytotoxicity against human MDA-MB-231 cells assessed as effect on cell growth at 10 uM incubated for 48 hrs by sulforhodamine B assay; conditions: mda-mb-231, 48 h

Measured: Activity

COc1ccc(N2C(=O)CC[C@H]2C(=O)NCc2ccc(Cl)cc2Cl)cc1
Non-Toxic: all assays above

O=C(NCc1ccc(Cl)cc1Cl)[C@@H]1COC(=O)N1c1cccs1
Non-Toxic: all assays above

CN1C(=O)C(C)(C)C[C@H]1C(=O)NCc1cccc(C(F)(F)F)c1Cl
Non-Toxic: all assays above

O=C(NCc1ccc(Cl)cc1Cl)[C@@H]1CCC(=O)N1c1cncs1
Non-Toxic: all assays above

O=C(NCc1ccc(Cl)cc1Cl)[C@@H]1CCC(=O)N1c1cscn1
Non-Toxic: all assays above

CN(Cc1ccccc1)C(=O)[C@@H]1CCC(=O)N1Cc1ccc(Cl)cc1Cl
Non-Toxic: all assays above

COc1ccc(NC(=O)[C@@H]2CCC(=O)N2)cc1OC
Non-Toxic: all assays above

CN(C)/C=C1\C[C@H]2C(=O)N(/C(=C/N(C)C)c3ccncc3)C(N(C)C)N2C1=O (stereo not given in full)
Non-Toxic: all assays above

COc1cc(CNC(=O)[C@@H]2CCC(=O)N2)cc(OC)c1OC
Non-Toxic: all assays above

CN1CCN(/C=C2\C[C@@H](C(=O)NCc3ccc(Cl)cc3Cl)N(c3cccs3)C2=O)CC1
Non-Toxic: all assays above

O=C(NCc1ccc(Cl)cc1Cl)[C@@H]1CCC(=O)N1c1ccsc1
Non-Toxic: all assays above

COc1ccccc1CN1C(=O)[C@@H]2C/C(=C\N(C)C)C(=O)N2C1N(C)C (stereo not given in full)
Non-Toxic: all assays above

O=C1N[C@H](C(=O)NCc2ccc(Cl)cc2Cl)CO1
Non-Toxic: all assays above

COc1cc(CN/C=C2\C[C@@H](C(=O)NCc3ccc(Cl)cc3Cl)NC2=O)cc(OC)c1OC
Non-Toxic: all assays above
